# Read-outs that look alike come from different tables or passages of the source.
# What was measured:
# human DGKα = biological target: T1, human DGKα (Homo sapiens, UniProt P23743); assay: DGKα LIPGLO assay (extruded liposome substrate), in vitro DGK inhibition; assay type: biochemical; conditions: liposome (LIPGLO) assay; read-out: DGKa LIPGLO IC50
# T1 construct: TVMV protease cleavage site (C); Hexa-His (C); made in house; host or cells: Sf9 insect cells (baculovirus, Bac-to-Bac)
# human DGKζ = biological target: T2, human DGKζ (Homo sapiens, UniProt Q13574); assay: DGKζ LIPGLO assay (extruded liposome substrate), in vitro DGK inhibition; assay type: biochemical; conditions: liposome (LIPGLO) assay; read-out: DGKz LIPGLO IC50
# T2 construct: TVMV protease cleavage site (C); Hexa-His (C); made in house; host or cells: Sf9 insect cells (baculovirus, Bac-to-Bac)
# naïve human CD8 T cells = assay: Human CD8 T cells IFN-γ assay; assay type: cell-based; conditions: normalized to 3 μM reference compound with anti-CD3 plus anti-CD28 as 100% activation, read-out: HuCD8 INFG Normalized EC50;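 further: Naïve human CD8 T cells stimulated with plate-bound anti-CD3 and soluble anti-CD28, IFN-γ in supernatant quantified by AlphaLISA and converted to pg/mL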
# Human venous whole blood = assay: Human whole blood IFN-γ assay; assay type: cell-based; conditions: human whole blood, normalized to 3 μM reference compound with anti-CD3 plus anti-CD28 as 100% activation, read-out: INFg Whole Blood Normalized Agonist EC50;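 further: blood from healthy donors exposed to compound for 1 h before stimulation with anti-CD3 and anti-CD28 at 1 µg/mL each, IFN-γ quantified in supernatant by AlphaLISA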
# T2 sequence (Q13574 with tags, fused parts or gaps isoform Q13574-4): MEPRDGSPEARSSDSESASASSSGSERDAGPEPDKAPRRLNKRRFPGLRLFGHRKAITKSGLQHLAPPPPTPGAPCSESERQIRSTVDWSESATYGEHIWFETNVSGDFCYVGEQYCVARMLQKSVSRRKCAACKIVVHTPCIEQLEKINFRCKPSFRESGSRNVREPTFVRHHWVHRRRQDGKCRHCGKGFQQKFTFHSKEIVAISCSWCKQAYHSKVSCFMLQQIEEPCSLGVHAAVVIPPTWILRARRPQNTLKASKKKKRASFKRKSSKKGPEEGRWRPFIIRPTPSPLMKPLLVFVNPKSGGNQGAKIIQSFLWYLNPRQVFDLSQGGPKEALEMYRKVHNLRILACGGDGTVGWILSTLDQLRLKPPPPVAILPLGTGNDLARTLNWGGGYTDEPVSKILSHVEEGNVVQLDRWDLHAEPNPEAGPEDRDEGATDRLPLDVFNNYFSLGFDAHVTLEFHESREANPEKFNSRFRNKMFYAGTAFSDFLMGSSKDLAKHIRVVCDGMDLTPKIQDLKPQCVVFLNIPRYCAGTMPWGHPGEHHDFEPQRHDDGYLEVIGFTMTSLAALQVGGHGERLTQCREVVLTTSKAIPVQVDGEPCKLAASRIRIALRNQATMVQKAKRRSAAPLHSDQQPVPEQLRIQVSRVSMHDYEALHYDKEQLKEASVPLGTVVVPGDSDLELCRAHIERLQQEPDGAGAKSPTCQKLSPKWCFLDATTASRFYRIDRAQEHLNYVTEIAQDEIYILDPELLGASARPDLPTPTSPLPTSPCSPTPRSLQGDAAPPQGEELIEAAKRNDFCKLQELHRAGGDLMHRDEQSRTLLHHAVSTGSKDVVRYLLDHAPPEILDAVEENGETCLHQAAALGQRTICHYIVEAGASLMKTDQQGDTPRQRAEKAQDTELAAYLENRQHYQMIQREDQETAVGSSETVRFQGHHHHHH
# T1 sequence (P23743 with tags, fused parts or gaps): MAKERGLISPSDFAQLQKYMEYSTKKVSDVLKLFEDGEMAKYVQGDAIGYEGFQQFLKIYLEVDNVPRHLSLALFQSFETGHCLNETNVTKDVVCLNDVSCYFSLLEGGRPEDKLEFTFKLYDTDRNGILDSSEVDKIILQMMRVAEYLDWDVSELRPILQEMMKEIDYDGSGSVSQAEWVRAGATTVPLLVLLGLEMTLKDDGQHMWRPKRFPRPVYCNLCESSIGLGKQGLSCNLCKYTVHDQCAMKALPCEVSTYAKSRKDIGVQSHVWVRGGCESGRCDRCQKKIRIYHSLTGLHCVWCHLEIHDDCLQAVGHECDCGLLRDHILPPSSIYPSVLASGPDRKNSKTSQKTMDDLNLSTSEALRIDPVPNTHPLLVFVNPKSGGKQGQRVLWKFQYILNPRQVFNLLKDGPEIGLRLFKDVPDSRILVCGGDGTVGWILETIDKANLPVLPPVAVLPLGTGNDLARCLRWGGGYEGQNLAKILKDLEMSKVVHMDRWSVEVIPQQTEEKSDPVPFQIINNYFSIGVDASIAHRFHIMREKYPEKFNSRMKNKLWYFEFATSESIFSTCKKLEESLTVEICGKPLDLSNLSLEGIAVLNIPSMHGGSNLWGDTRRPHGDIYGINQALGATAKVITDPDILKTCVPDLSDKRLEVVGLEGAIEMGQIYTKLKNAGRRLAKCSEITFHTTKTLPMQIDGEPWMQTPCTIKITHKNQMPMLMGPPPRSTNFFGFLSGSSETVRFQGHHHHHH
IC50 (human DGKα) [nM],IC50 (human DGKζ) [nM],SMILES,"EC50 (naïve human CD8 T cells; Homo sapiens, T-cell, 20 h) [nM]","EC50 (Human venous whole blood; Homo sapiens, 24 h) [nM]",EC50 (naïve human CD8 T cells) [nM],EC50 (Human venous whole blood; Homo sapiens) [nM],EC50 (Human venous whole blood) [nM]
3000,760,"C[C@@H]1CN(c2cc(=O)n(C)c3ccc(C#N)nc23)[C@@H](C)CN1C(c1ccc(F)cc1)c1cc(F)cc(F)c1 (stereo partly drawn) [Example 289, 8-[(2S,5R)-4-[(3,5-difluorophenyl)(4-fluorophenyl)methyl]-2,5-dimethylpiperazin-1-yl]-5-methyl-6-oxo-5,6-dihydro-1,5-naphthyridine-2-carbonitrile]",220,1000,–,–,–
200,680,"C[C@@H]1CN(c2cc(=O)n(C)c3ccc(C#N)nc23)[C@@H](C)CN1C(c1ccc(F)cc1)c1ccc(F)cn1 (single isomer, unassigned) [Example 194]",40,980,–,–,–
5700,2500,"C[C@@H]1CN(c2cc(=O)n(C)c3ccc(C#N)nc23)[C@@H](C)CN1C(c1ccc(F)cc1)c1c(F)cccc1F (single isomer, unassigned) [Example 274]",–,3600,42,–,–
870,1600,"C[C@@H]1CN(c2cc(=O)n(C)c3ccc(C#N)nc23)[C@@H](C)CN1C(c1ccccc1)c1ccc(F)cc1 (mixture of isomers) [Example 182, 8-[(2S,5R)-4-[(4-fluorophenyl)(phenyl)methyl]-2,5-dimethylpiperazin-1-yl]-5-methyl-6-oxo-5,6-dihydro-1,5-naphthyridine-2-carbonitrile]",30,–,–,680,–
240,870,"C[C@@H]1CN(c2cc(=O)n(C)c3ccc(C#N)nc23)[C@@H](C)CN1C(c1ccc(F)cc1)c1ccccn1 (single isomer, unassigned) [Example 198]",–,–,21,–,590
990,450,"C[C@@H]1CN(c2cc(=O)n(C)c3ccc(C#N)nc23)[C@@H](C)CN1C(c1ccccc1)c1c(F)cccc1F (single isomer, unassigned) [Example 272]",79,–,–,–,2500
650,1100,"C[C@@H]1CN(c2cc(=O)n(C)c3ccc(C#N)nc23)[C@@H](C)CN1C(c1ccccc1)c1ccc(F)cc1F (stereo partly drawn) [Example 283, 8-[(2S,5R)-4-[(2,4-difluorophenyl)(phenyl)methyl]-2,5-dimethylpiperazin-1-yl]-5-methyl-6-oxo-5,6-dihydro-1,5-naphthyridine-2-carbonitrile]",68,890,–,–,–
58000,450,"CCOc1cc(F)ccc1C(c1ccc(F)cc1)N1C[C@H](C)N(c2cc(=O)n(C)c3ccc(C#N)nc23)C[C@H]1C (single isomer, unassigned) [Example 229]",–,8300,1000,–,–
1700,1100,"Cc1ccc(C(c2ccc(Cl)cc2)N2C[C@H](C)N(c3cc(=O)n(C)c4ccc(C#N)nc34)C[C@H]2C)cc1 (stereo partly drawn) [Example 299, 8-[(2S,5R)-4-[(4-chlorophenyl)(4-methylphenyl)methyl]-2,5-dimethylpiperazin-1-yl]-5-methyl-6-oxo-5,6-dihydro-1,5-naphthyridine-2-carbonitrile]",17,650,–,–,–
1500,57,"Cc1cccc(C(c2ccc(F)cc2)N2C[C@H](C)N(c3cc(=O)n(C)c4ccc(C#N)nc34)C[C@H]2C)c1 (single isomer, unassigned) [Example 224]",–,–,24,–,1000
360,3900,"C[C@@H]1CN(c2cc(=O)n(C)c3ccc(C#N)nc23)[C@@H](C)CN1C(c1ccc(F)cc1)c1cnsc1 (single isomer, unassigned) [Example 715]",42,–,–,–,680

# Continued, compound first:
SMILES,IC50 (human DGKα) [nM],IC50 (human DGKζ) [nM],"EC50 (naïve human CD8 T cells; Homo sapiens, T-cell, 20 h) [nM]","EC50 (Human venous whole blood; Homo sapiens, 24 h) [nM]",EC50 (naïve human CD8 T cells) [nM],EC50 (Human venous whole blood; Homo sapiens) [nM],EC50 (Human venous whole blood) [nM]
"C[C@@H]1CN(c2cc(=O)n(C)c3ccc(C#N)nc23)[C@@H](C)CN1Cc1c(F)cc(F)cc1F [Example 246, 8-[(2S,5R)-2,5-dimethyl-4-[(2,4,6-trifluorophenyl)methyl]piperazin-1-yl]-5-methyl-6-oxo-5,6-dihydro-1,5-naphthyridine-2-carbonitrile]",120,460,27,550,–,–,–
"C[C@@H]1CN(c2cc(=O)n(C)c3ccc(C#N)nc23)[C@@H](C)CN1Cc1ccccc1 [Example 264, 8-[(2S,5R)-4-benzyl-2,5-dimethylpiperazin-1-yl]-5-methyl-6-oxo-5,6-dihydro-1,5-naphthyridine-2-carbonitrile]",35,3000,260,11000,–,–,–
CC[C@H]1CN(C(c2ccc(Cl)cc2)c2ccc(Cl)cc2)[C@H](C)CN1c1cc(=O)n(C)c2ccc(C#N)nc12 [Example 1120],110,75,32,680,–,–,–
"CC(C)Oc1ncccc1C(c1ccc(F)cc1)N1C[C@H](C)N(c2cc(=O)n(C)c3ccc(C#N)nc23)C[C@H]1C (single isomer, unassigned) [Example 208]",11000,680,–,–,250,–,1000
"CCc1cc(F)ccc1C(c1ccc(Cl)cc1)N1C[C@H](C)N(c2cc(=O)n(C)c3ccc(C#N)nc23)C[C@H]1C (single isomer, unassigned) [Example 226]",67000,1400,–,–,67,–,1700
"Cn1c(=O)cc(N2CCN(C(c3ccc(F)cc3)c3ccc(F)cc3)C(C#N)C2)c2nc(C#N)ccc21 (stereo not shown) [Example 43, 8-(4-(bis(4-fluorophenyl)methyl)-3-cyanopiperazin-1-yl)-5-methyl-6-oxo-5,6-dihydro-1,5-naphthyridine-2-carbonitrile]",6200,3100,87,1200,–,–,–
"CCc1ccccc1C(c1ccc(F)cc1)N1C[C@H](C)N(c2cc(=O)n(C)c3ccc(OC)nc23)C[C@H]1C (single isomer, unassigned) [Example 235]",81000,4800,–,20000,1500,–,–
"C[C@@H]1CN(c2cc(=O)n(C)c3ccc(C#N)nc23)[C@@H](C)CN1Cc1ccc(F)cc1C(F)F [Example 242, 8-[(2S,5R)-4-{[2-(difluoromethyl)-4-fluorophenyl]methyl}-2,5-dimethylpiperazin-1-yl]-5-methyl-6-oxo-5,6-dihydro-1,5-naphthyridine-2-carbonitrile]",4400,970,170,–,–,1500,–
